Source: ChEMBL document CHEMBL1268849, “A conformationally constrained inhibitor with an enhanced potency for β-tryptase and stability against semicarbazide-sensitive amine oxidase (SSAO)” (Bioorg Med Chem Lett, 2010)

Key:
[1] = Inhibition of human tryptase-beta using chromogenic substrate S-2366 after 30 mins by spectrophotometry
[2] = test system: semicarbazide-sensitive amine oxidase (SSAO); assay: Chemical stability in presence of 56 ug/mL of human recombinant semicarbazide-sensitive amine oxidase assessed as compound remaining after 24 hrs by LC/MS method; type: physicochemical; conditions: read-out: Stability
[3] = Metabolic stability in human liver microsomes after 20 mins; type: ADME, Microsome; conditions: read-out: Stability
[4] = Metabolic stability in guinea pig liver microsomes after 20 mins; type: ADME, Cavia porcellus, Microsome; conditions: read-out: Stability
[5] = Metabolic stability in rat liver microsomes after 20 mins; type: ADME, Microsome; conditions: read-out: Stability
hERG (KCNH2) = hERG (KCNH2) (Homo sapiens, UniProt Q12809); assay: Inhibition of human ERG at 10 uM
Chain of hERG (KCNH2) (Q12809 whole entry): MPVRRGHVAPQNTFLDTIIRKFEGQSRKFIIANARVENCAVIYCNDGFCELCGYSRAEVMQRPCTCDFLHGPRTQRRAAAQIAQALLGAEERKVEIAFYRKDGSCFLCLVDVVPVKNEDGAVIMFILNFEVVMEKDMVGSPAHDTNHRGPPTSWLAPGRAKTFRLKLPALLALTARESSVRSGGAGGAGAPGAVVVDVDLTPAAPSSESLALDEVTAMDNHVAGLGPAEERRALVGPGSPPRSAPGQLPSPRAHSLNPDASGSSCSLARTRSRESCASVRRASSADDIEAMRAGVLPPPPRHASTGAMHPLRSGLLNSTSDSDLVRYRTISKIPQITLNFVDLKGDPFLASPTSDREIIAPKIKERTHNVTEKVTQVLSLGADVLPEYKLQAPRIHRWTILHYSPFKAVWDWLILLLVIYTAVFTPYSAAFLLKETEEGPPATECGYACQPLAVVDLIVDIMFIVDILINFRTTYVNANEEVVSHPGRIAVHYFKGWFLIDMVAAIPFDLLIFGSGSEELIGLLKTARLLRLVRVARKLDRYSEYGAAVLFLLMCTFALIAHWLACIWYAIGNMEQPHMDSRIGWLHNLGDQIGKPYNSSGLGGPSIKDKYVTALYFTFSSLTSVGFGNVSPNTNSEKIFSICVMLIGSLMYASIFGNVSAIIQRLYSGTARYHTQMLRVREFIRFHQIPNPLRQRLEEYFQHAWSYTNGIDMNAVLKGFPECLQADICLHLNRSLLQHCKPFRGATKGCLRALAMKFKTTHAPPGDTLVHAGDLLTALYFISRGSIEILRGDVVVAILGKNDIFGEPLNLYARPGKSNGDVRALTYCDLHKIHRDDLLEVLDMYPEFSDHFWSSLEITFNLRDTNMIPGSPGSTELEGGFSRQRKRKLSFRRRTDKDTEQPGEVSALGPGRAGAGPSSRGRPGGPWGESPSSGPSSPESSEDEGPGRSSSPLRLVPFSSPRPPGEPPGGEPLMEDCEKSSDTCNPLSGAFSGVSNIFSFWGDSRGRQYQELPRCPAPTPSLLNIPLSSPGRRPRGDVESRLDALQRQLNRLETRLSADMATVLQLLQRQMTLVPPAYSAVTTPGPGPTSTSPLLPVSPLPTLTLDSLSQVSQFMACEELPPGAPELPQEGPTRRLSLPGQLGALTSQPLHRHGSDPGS

Cytochrome P450 3A4 = Cytochrome P450 3A4 (Homo sapiens, UniProt P08684); assay: Inhibition of CYP3A4; type: ADME
Chain of Cytochrome P450 3A4 (P08684 whole entry): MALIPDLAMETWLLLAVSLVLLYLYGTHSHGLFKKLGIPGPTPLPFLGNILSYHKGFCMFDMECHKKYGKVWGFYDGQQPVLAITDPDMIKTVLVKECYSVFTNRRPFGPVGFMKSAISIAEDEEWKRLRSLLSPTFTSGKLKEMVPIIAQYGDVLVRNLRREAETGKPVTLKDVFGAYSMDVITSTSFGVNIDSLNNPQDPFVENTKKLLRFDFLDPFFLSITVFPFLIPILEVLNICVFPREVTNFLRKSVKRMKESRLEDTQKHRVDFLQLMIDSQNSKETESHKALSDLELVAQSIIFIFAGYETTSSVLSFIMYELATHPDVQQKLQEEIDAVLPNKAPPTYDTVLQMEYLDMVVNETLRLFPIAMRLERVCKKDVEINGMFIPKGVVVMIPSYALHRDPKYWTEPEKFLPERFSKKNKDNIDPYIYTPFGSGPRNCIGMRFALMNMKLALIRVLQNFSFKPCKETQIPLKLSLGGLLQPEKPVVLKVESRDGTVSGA

SMILES	Ki [1]	remaining at 24 h [2]	remaining at 20 min [3]	remaining at 20 min [4]	remaining at 20 min [5]	inhibition at 10 µM (hERG (KCNH2))	INH (Cytochrome P450 3A4)
COCCn1cc(C(=O)N2CCC(c3cc(CN)ccc3F)CC2)c2c(C(=O)N(C)C)cccc21.Cl	20 nM	100%	67%	69%	92%	16%	> 30 µM
COCCn1cc(C(=O)N2CCC(c3cc(CN)ccc3F)CC2)c2ccccc21	54.2 nM	67%	–	–	–	–	–
